According to US12208105B2, “Methods for attenuating graft-versus-host disease and opportunistic infections” (priority 2018, dated 2025):
Like-named read-outs stand apart in the source and are kept apart here.

Tests used:
Murine CCR7 = biological target: T1, Murine CCR7 (Mus musculus, UniProt P47774); assay: HTS primary reporter assay, murine CCR7; assay type: cell-based
T1 sequence (P47774 25-378): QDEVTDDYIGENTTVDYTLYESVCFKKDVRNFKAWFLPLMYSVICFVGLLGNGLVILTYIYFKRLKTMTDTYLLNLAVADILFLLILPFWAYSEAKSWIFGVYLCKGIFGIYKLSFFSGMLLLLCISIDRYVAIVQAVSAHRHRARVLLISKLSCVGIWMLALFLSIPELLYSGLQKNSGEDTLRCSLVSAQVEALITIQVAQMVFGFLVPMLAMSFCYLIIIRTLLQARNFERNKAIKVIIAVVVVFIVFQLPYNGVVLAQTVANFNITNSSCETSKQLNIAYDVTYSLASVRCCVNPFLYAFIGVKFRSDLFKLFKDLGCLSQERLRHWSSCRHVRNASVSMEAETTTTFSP

[1] = test system: human PBMC into NSG xenogeneic aGVHD system; assay: Xenogeneic aGVHD, human PBMC into NSG mice, cells incubated ex vivo; assay type: in vivo, mouse; design: survival times: dose or concentration left out as unconfirmed
[2] = test system: donor (eGFP+) cells in the spleen; assay: Donor engraftment in host spleen by flow cytometry; assay type: in vivo, mouse; conditions: whole stem cell product incubated 15 μg/ml, transplant day +10
Experimental: Purified Tcons and TCD BM cells were obtained from B6 donors transgenic for enhanced green fluorescent protein (eGFP^+) and were mixed together prior to being incubated with cosalane or DMSO. The cells were subsequently administered to irradiated B6D2 recipients and both bone marrow and Tcon engraftment then determined by flow cytometry within the host spleen on transplant day +10. Donor derived cells were distinguished from residual host cells by virtue of their eGFP positivity.

serum albumin = serum albumin (Homo sapiens, UniProt P02768); conditions: cited from earlier work
Cytotoxicity (Table 1) = assay type: cell-based
Source text: Perhaps the most important goal of HSCT research is to separate the beneficial anti-tumor effects mediated by donor T cells from the deleterious GVHD responses that they are also capable of producing. […] Unfortunately, there were no drugs or therapeutic antibodies available for clinical use. As a result, we pursued our high throughput screening (HTS) effort to identify novel small molecule antagonists with anti-CCR7 activity. The initial drug discovery process identified cosalane as a CCR7 antagonist. A substantial amount of work has subsequently been done with the compound in an effort to prevent acute graft-versus-host disease in mouse bone marrow transplant models.

CCR7 = biological target: T2, CCR7 (Homo sapiens, UniProt P32248); assay: Trans-well chemotaxis assay, human H9 cells; assay type: cell-based; design: confirm that hits identified in the HTS were active against native CCR7; endogenous in cells; host or cells: H9 cells (human cutaneous T cell lymphoma line)
T2 sequence (P32248 25-378): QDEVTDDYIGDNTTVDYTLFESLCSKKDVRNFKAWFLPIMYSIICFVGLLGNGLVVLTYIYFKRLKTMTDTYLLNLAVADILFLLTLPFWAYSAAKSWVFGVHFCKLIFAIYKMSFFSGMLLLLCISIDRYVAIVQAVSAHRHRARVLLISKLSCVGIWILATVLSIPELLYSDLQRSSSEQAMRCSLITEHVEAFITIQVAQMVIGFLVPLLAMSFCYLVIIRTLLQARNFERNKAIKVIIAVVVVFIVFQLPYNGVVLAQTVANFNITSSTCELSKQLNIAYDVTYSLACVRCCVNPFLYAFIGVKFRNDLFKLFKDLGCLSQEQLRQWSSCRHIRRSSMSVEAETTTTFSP
Experimental: FIGS. 1A-1D show cosalane impairs CCR7 driven human and murine chemotaxis. (A, B) Chemotaxis media with or without CCL19 (A) or CCL21 (B) was added to the lower chambers of the chemotaxis device. Previously untreated H9 cells were then placed in the upper chambers of the device with or without cosalane at a concentration of 2 μM. The chamber was then placed at 37° C. for 3.5 hours and total H9 migration from each upper to lower chamber determined. (A) *P=0.048 for comparison between H9 cells/30 nM CCL19 and H9 cells/30 nM CCL19/2 μM cosalane by Student's t test. (B) P>0.05 for comparison between H9 cells/200 nM CCL21 and H9 cells/200 nM CCL21/2 μM cosalane. (C, D) Chemotaxis media with or without CCL19 (C) or CCL21 (D) was added to the lower chambers of the chemotaxis device. Previously untreated primary murine T cells were then placed in the upper chambers of the device with or without cosalane at a concentration of 2 μM. Total T cell migration from each upper to lower chamber was then determined. (C) *P=0.029. (D) *P<0.001.
While useful from a screening perspective, our primary reporter assays for the HTS were not physiologic. As a result, it was important to confirm that hits identified in the HTS were active against native CCR7 and could block an actual function mediated by the receptor. For this, we used a well-described trans-well chemotaxis assay system using human H9 cells, a cutaneous T cell lymphoma line known to express high levels of CCR7 and to migrate in response to its ligands (Ott et al., J. Pharmacol. Toxicol. Meth. 51:105 (2005)). In addition, we utilized primary mouse, naïve (CD25^neg) T cells obtained from C57BL/6 mice. As depicted in FIG. 1A, human H9 cells placed in the upper chambers of the chemotaxis device readily migrated through the separating membrane when CCL19 was present in the lower chamber. […] Similarly, murine T cell chemotaxis was also impaired by cosalane in response to both CCL19 and CCL21 (FIGS. 1C-1D).
To evaluate this possibility, human H9 cells were incubated with 10 mcg/ml (13 μM) of cosalane versus DMSO vehicle for one hour and then washed free of the compound. The cells were then placed into the chemotaxis chamber as was done in FIGS. 1A-1D. […] Similar experiments were performed with naïve primary mouse T cells.

TNF and IFN-γ = assay: Organ inflammatory cytokines by ELISA after HSCT; conditions: day +14
Experimental: (A, B) B6D2 mice were lethally irradiated on transplant day −1. On day 0 recipients were administered 3×10^6 TCD B6 BM cells +/−4×10^6 B6 Tcons. Donor TCD BM cells, donor Tcons, both cell populations, or neither were incubated ex vivo with cosalane at 15 μg/ml for one hour prior to transplant. Those cells not treated with cosalane were incubated with an equal volume of DMSO vehicle. Mice were then followed for survival and scored for aGVHD. N=2 BM only. N=5 for all other treatment groups. […] (C, D) B6D2 mice were lethally irradiated on transplant day −1. On day 0 recipients were administered 3×10^6 TCD eGFP^− B6 BM cells plus 4×10^6 eGFP^+ B6 Tcons. Donor Tcons were incubated ex vivo with DMSO vehicle or cosalane diluted in normal saline at 15 μg/ml. The cells were then mixed with untreated TCD B6 BM cells and administered immediately to recipient mice by tail vein injection. Recipient mice were subsequently killed on day +7 (C) or day +14 (D). Lymphoid organs (left panels) and aGVHD target organs (right panels) were subsequently harvested and homogenized. Total eGFP levels were then determined using an anti-eGFP ELISA. N=7 per treatment group. […] (E, F) B6D2 mice were transplanted as in (C, D) and their organs removed and homogenized on day +7 (E) or day +14 (F). Total IFN-y (left panels) and TNF (right panels) was then determined by ELISA. N=7 per treatment group.

donor Tcon accumulation = assay: Organ eGFP quantification (donor Tcon accumulation, anti-eGFP ELISA); assay type: in vivo, mouse
[3] = 10 mcg/ml (13 μM) one hour, then washed
[4] = day +14, Tcons incubated 15 μg/ml

serum albumin, sequence (P02768 25-609): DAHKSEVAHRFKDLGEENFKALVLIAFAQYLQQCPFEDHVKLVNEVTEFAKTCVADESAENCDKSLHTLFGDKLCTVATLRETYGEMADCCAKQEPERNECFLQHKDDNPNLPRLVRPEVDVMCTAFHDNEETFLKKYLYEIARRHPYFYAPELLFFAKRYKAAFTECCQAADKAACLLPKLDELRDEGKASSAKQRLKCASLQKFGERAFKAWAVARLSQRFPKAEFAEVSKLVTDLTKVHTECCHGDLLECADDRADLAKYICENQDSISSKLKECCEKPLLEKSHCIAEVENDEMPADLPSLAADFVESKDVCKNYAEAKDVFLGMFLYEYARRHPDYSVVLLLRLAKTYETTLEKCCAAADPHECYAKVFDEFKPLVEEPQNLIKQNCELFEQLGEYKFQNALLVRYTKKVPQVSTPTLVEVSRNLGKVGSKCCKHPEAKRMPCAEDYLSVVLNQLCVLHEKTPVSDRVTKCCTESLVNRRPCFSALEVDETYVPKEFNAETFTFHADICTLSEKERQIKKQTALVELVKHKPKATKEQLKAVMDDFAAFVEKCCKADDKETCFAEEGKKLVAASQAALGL

CC(C)CCC[C@@H](C)[C@H]1CC[C@H]2[C@@H]3CC[C@H]4C[C@@H](CCC=C(c5cc(Cl)c(O)c(C(=O)O)c5)c5cc(Cl)c(O)c(C(=O)O)c5)CC[C@]4(C)[C@H]3CC[C@]12C [Cosalane, cosalane]
IC50 (Murine CCR7; ligand CCL19, read-out: Murine CCR7 IC50 To CCL19): 0.193 µM | IC50 (Murine CCR7; ligand CCL21, read-out: Murine CCR7 IC50 To CCL21): 1.98 µM | survival ([1]; human PBMCs incubated 35 μg/ml): most recipients surviving to the end of the study period | survival times ([1]; human PBMCs incubated with cosalane): prolonged survival times | donor cell numbers in the spleen [2]: did not produce any differences in donor monocyte, neutrophil, T cell, or B cell numbers | albumin avidity (serum albumin): high albumin avidity | Cytotoxicity (Cytotoxicity (Table 1)): >50 (non-toxic) μM | H9 cell migration in response to CCL19 (CCR7; 2 μM cosalane in upper chamber, 30 nM CCL19, 3.5 hours, vs DMSO): inhibited versus DMSO | H9 cell CCL21 driven chemotaxis (CCR7; 2 μM cosalane in upper chamber, 200 nM CCL21): reduced by cosalane, although this did not achieve statistical significance | H9 chemotaxis in response to CCL19 after pretreatment alone (CCR7; [3]): significantly reduced | H9 chemotaxis in response to CCL21 after pretreatment alone (CCR7; [3]): significantly reduced | TNF and IFN-γ levels in the host colon (TNF and IFN-γ): significantly reduced | donor Tcon numbers within the spleen, ILN, and MLN (donor Tcon accumulation; 36 hours after transplant, Tcons incubated 15 μg/ml): significant reduction in donor Tcon numbers | donor Tcon accumulation in secondary lymphoid tissues and aGVHD target organs (donor Tcon accumulation; day +7, Tcons incubated 15 μg/ml): no differences in donor Tcon accumulation | donor Tcon accumulation within host lymphoid sites (donor Tcon accumulation; [4]): no differences in donor Tcon accumulation | donor Tcons within the colon and liver (donor Tcon accumulation; [4]): significant reduction in donor Tcons
